Patent US6437002B1, “Agent for preventing and treating skin diseases” (Showa Denko K.K., priority 1998, dated 2002)

Legend:
[1] = system: dorsum skin of hairless mouse; assay: Test (A): skin permeability and ascorbic acid activity, H-type transverse diffusion cell; assay type: in vitro ADME; parameters: key: When an ascorbic acid transmitted through the skin was identified, the evaluation was “+”; when an ascorbic acid was not detected, the evaluation was “−”; When a peak on the order of a trace was confirmed, the evaluation was “+”; details: abraded hairless mouse skin, 37° C., 30 to 120 minutes
Protocol: The dorsum skin with corium of a 4- or 5-week-old hairless mouse was abraded and the skin abraded from the back of the hairless mouse was fixed in an H-type transverse diffusion cell. Then, 2 ml of DALBECCO PBS(−) was charged into the receiver-side cell and 2 ml of a specimen was charged into the donor-side cell. After incubation at 37° C. for from 30 to 120 minutes, 200 μl was sampled from the […] and 200 μl of DALBECCO PBS(−) was replenished. An ascorbic acid amount of the solution sampled was analyzed by the HPLC method described later in the Examples. When an ascorbic acid transmitted through the skin was detected and identified, the evaluation was “+” and when an ascorbic acid was not detected and identified, the evaluation was “−”. When a peak on the order of a trace was confirmed, the evaluation was “±”.
The dorsum skin with corium of a 4- or 5-week-old hairless mouse was abraded and the skin abraded from the back of the hairless mouse was fixed in an H-type transverse diffusion cell. Then, 2 ml of DALBECCO PBS(−) was charged into the receiver-side cell and 2 ml of a specimen was charged into the donor-side cell (in the case of an oil-soluble material, it was emulsion-dispersed in an ordinary manner by adding 2% of a surfactant Tween 80 (trademark)). After incubation at 37° C. for from 30 to 120 minutes, 200 μl was sampled from the […] and 200 μl of DALBECCO PBS (−) was replenished. An ascorbic acid amount of the solution sampled was analyzed by the HPLC method in the Examples. When an ascorbic acid transmitted through the skin was identified, the evaluation was “+” and when an ascorbic acid was not detected, the evaluation was “−” When a peak on the order of a trace was confirmed, the evaluation was […].

[2] = Test (B): durability (activity duration) on storage; assay type: physicochemical; details: 0.5% in water (oil-soluble: emulsion with 2% Tween 80), stored at 40° C. for one month
Protocol: An ascorbic acid derivative was dissolved in water to have a concentration of 0.5% (in the case of an oil-soluble SF-621 US material, it was emulsion-dispersed in an ordinary manner by adding 2% of a surfactant Tween 80 (trademark)) and stored at 40° C. for one month. Then the residual amount of the derivative was measured by the HPLC method described later in the Examples. When the residual ratio was 90% or more, the evaluation was “+” and when it was less than 90%, the evaluation was “−”.
An ascorbic acid derivative was dissolved in water to have a concentration of 0.5% (in the case of an oil-soluble material, it was emulsion-dispersed in an ordinary manner by adding 2% of a surfactant Tween 80 (trademark)) and stored at 40° C. for one month. Then the residual amount of the derivative was measured by the HPLC method. When the residual ratio was 90% or more, the evaluation was “+” and when it was less than 90%, the evaluation was “−”.

Molecule	Test (A): skin permeability and ascorbic acid activity (ascorbic acid transmitted through the skin, by HPLC) [1]	Test (B): durability (residual ratio of the derivative by HPLC) [2]
2-Palmitoyloxy-L-ascorbic acid-2-phosphate	+	
Cc1c(C)c2c(c(C)c1OP(=O)(O)OC1=C(O)[C@@H]([C@@H](O)CO)OC1=O)CC[C@@](C)(CCC[C@H](C)CCC[C@H](C)CCCC(C)C)O2 [Ascorbic acid tocopherolphosphate diester, reference compound]	−	+ (When the residual ratio was 90% or more, the evaluation was “+”)
O=C1O[C@H]([C@@H](O)CO)C(O)=C1OP(=O)([O-])[O-].[Mg+2] [Magnesium L-ascorbic acid-2-phosphate]		+ (When the residual ratio was 90% or more, the evaluation was “+”)
O=C1O[C@H]([C@@H](O)CO)C(O)=C1OP(=O)([O-])[O-].[K+].[K+] [Potassium L-ascorbic acid-2-phosphate]	+	+ (When the residual ratio was 90% or more, the evaluation was “+”)
O=C1O[C@H]([C@@H](O)CO)C(O)=C1OP(=O)([O-])[O-].[Na+].[Na+] [Sodium L-ascorbic acid-2-phosphate]	+	+ (When the residual ratio was 90% or more, the evaluation was “+”)

More lines, main results first:

Test (A): skin permeability and ascorbic acid activity (ascorbic acid transmitted through the skin, by HPLC) [1]	Molecule	Test (B): durability (residual ratio of the derivative by HPLC) [2]
+	O=C1O[C@H]([C@@H](O)CO)C(O)=C1O[C@H]1O[C@H](CO)[C@@H](O)[C@H](O)[C@H]1O [L-Ascorbic acid-2-glucoside]	+ (When the residual ratio was 90% or more, the evaluation was “+”)
−	O=C1O[C@H]([C@@H](O)CO)C(O)=C1OS(=O)(=O)[O-].[Na+] [Sodium L-ascorbic acid-2-sulfate, reference compound]	+ (When the residual ratio was 90% or more, the evaluation was “+”)
